# Results from PubChem BioAssay AID2060485 (Molecular Pharmacology Branch, DTP, NCI, 2025).
# Tested on: A375 multi-cell spheroids with HUVEC/MSC, viability
# Experiment: Anticancer human tumor A375 cell line growth inhibition [GQUAD];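 also: spheroids exposed to compounds for seven days before readout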
# Conditions: for IC50: curve of first compound; for viability, T/C: stronger effect = lower value
# Summary of the method: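 Viability of tumor cells grown as complex spheroids with endothelial and stromal cells, exposed to drug combinations. Top concentration at or near clinical Cmax (else 10 microM), diluted in half-log increments.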
# [1] = second compound 0.0316 µM, first compound 0.0316 µM
# [2] = second compound 0.0316 µM, first compound 0.1 µM
# [3] = second compound 0.0316 µM, first compound 0.316 µM
# [4] = second compound 0.0316 µM, first compound 1 µM
# [5] = second compound 0.0316 µM, first compound 3.16 µM
# [6] = second compound 0.0316 µM, first compound 10 µM
# [7] = second compound 0.1 µM, first compound 0.0316 µM
# [8] = second compound 0.1 µM, first compound 0.1 µM
# [9] = second compound 0.1 µM, first compound 0.316 µM
# [10] = second compound 0.1 µM, first compound 1 µM
# [11] = second compound 0.1 µM, first compound 3.16 µM
# [12] = second compound 0.1 µM, first compound 10 µM
# [13] = second compound 0.316 µM, first compound 0.0316 µM
# [14] = second compound 0.316 µM, first compound 0.1 µM
# [15] = second compound 0.316 µM, first compound 0.316 µM
# [16] = second compound 0.316 µM, first compound 1 µM
# [17] = second compound 0.316 µM, first compound 3.16 µM
# [18] = second compound 0.316 µM, first compound 10 µM
# [19] = second compound 1 µM, first compound 0.0316 µM
# [20] = second compound 1 µM, first compound 0.1 µM
# [21] = second compound 1 µM, first compound 0.316 µM
# [22] = second compound 1 µM, first compound 1 µM
# [23] = second compound 1 µM, first compound 3.16 µM
# [24] = second compound 1 µM, first compound 10 µM
# [25] = second compound 3.16 µM, first compound 0.0316 µM
# [26] = second compound 3.16 µM, first compound 0.1 µM
# [27] = second compound 3.16 µM, first compound 0.316 µM
# [28] = second compound 3.16 µM, first compound 1 µM
# [29] = second compound 3.16 µM, first compound 3.16 µM
# [30] = second compound 3.16 µM, first compound 10 µM
# [31] = second compound 10 µM, first compound 0.0316 µM
# [32] = second compound 10 µM, first compound 0.1 µM
# [33] = second compound 10 µM, first compound 0.316 µM
# [34] = second compound 10 µM, first compound 1 µM
# [35] = second compound 10 µM, first compound 3.16 µM
# [36] = second compound 10 µM, first compound 10 µM
smiles,measurement,setting,value
C=CC(=O)N1CCN(c2nc(=O)n(-c3c(C)ccnc3C(C)C)c3nc(-c4c(O)cccc4F)c(F)cc23)C(C)C1 (stereo unspecified) + Cc1[nH]c2ccc(F)cc2c1-c1nc2c3cccnc3c3ncccc3c2[nH]1,IC50,second compound 0.0316 µM,> 10 µM
same,IC50,second compound 0.1 µM,> 10 µM
same,IC50,second compound 0.316 µM,> 10 µM
same,IC50,second compound 1 µM,> 10 µM
same,IC50,second compound 3.16 µM,> 10 µM
same,IC50,second compound 10 µM,> 10 µM
same,"viability, T/C",[1],101%
same,"viability, T/C",[2],102%
same,"viability, T/C",[3],96.6%
same,"viability, T/C",[4],94.5%
same,"viability, T/C",[5],111%
same,"viability, T/C",[6],135%
same,"viability, T/C",[7],116%
same,"viability, T/C",[8],97.8%
same,"viability, T/C",[9],103%
same,"viability, T/C",[10],93.3%
same,"viability, T/C",[11],140%
same,"viability, T/C",[12],149%
same,"viability, T/C",[13],99%
same,"viability, T/C",[14],102%
same,"viability, T/C",[15],105%
same,"viability, T/C",[16],113%
same,"viability, T/C",[17],152%
same,"viability, T/C",[18],150%
same,"viability, T/C",[19],99.1%
same,"viability, T/C",[20],103%
same,"viability, T/C",[21],110%
same,"viability, T/C",[22],120%
same,"viability, T/C",[23],161%
same,"viability, T/C",[24],141%
same,"viability, T/C",[25],94.2%
same,"viability, T/C",[26],95.5%
same,"viability, T/C",[27],104%
same,"viability, T/C",[28],93.6%
same,"viability, T/C",[29],104%
same,"viability, T/C",[30],52.9%
same,"viability, T/C",[31],108%
same,"viability, T/C",[32],99%
same,"viability, T/C",[33],116%
same,"viability, T/C",[34],96.3%
same,"viability, T/C",[35],121%
same,"viability, T/C",[36],79.8%
CC(C)n1c(=O)n(C)c2cnc3cc(F)c(-c4ccc(OCCCN5CCCCC5)nc4)cc3c21 + Cc1[nH]c2ccc(F)cc2c1-c1nc2c3cccnc3c3ncccc3c2[nH]1,IC50,second compound 0.0316 µM,> 10 µM
same,IC50,second compound 0.1 µM,> 10 µM
same,IC50,second compound 0.316 µM,> 10 µM
same,IC50,second compound 1 µM,> 10 µM
same,IC50,second compound 3.16 µM,5.04 µM
same,IC50,second compound 10 µM,9.55 µM
same,"viability, T/C",[1],92.3%
same,"viability, T/C",[2],93.3%
same,"viability, T/C",[3],91.1%
same,"viability, T/C",[4],96.3%
same,"viability, T/C",[5],109%
same,"viability, T/C",[6],91.1%
same,"viability, T/C",[7],98.2%
same,"viability, T/C",[8],89.7%
same,"viability, T/C",[9],97.2%
same,"viability, T/C",[10],95.9%
same,"viability, T/C",[11],113%
same,"viability, T/C",[12],96.3%
same,"viability, T/C",[13],92.5%
same,"viability, T/C",[14],91.8%
same,"viability, T/C",[15],112%
same,"viability, T/C",[16],96.7%
same,"viability, T/C",[17],106%
same,"viability, T/C",[18],90%
same,"viability, T/C",[19],89.9%
same,"viability, T/C",[20],98.1%
same,"viability, T/C",[21],97.8%
same,"viability, T/C",[22],96%
same,"viability, T/C",[23],116%
same,"viability, T/C",[24],93.7%
same,"viability, T/C",[25],83.5%
same,"viability, T/C",[26],80.2%
same,"viability, T/C",[27],92.7%
same,"viability, T/C",[28],73%
same,"viability, T/C",[29],65.2%
same,"viability, T/C",[30],29.3%
same,"viability, T/C",[31],106%
same,"viability, T/C",[32],101%
same,"viability, T/C",[33],101%
same,"viability, T/C",[34],88.4%
same,"viability, T/C",[35],81.2%
same,"viability, T/C",[36],47.7%
CC1COCCN1c1cc(-c2ccnn2C)c2ccnc(-c3ccn[nH]3)c2n1 (stereo unspecified) + Cc1[nH]c2ccc(F)cc2c1-c1nc2c3cccnc3c3ncccc3c2[nH]1,IC50,second compound 0.0316 µM,0.628 µM
same,IC50,second compound 0.1 µM,0.613 µM
same,IC50,second compound 0.316 µM,0.454 µM
same,IC50,second compound 1 µM,0.384 µM
same,IC50,second compound 3.16 µM,0.0351 µM
same,IC50,second compound 10 µM,0.0527 µM
same,"viability, T/C",[1],111%
same,"viability, T/C",[2],108%
same,"viability, T/C",[3],75.3%
same,"viability, T/C",[4],33.3%
same,"viability, T/C",[5],13.1%
same,"viability, T/C",[6],12.3%
same,"viability, T/C",[7],116%
same,"viability, T/C",[8],113%
same,"viability, T/C",[9],66.4%
same,"viability, T/C",[10],39%
same,"viability, T/C",[11],12.2%
same,"viability, T/C",[12],10.8%
same,"viability, T/C",[13],114%
same,"viability, T/C",[14],128%
same,"viability, T/C",[15],62.6%
same,"viability, T/C",[16],34%
same,"viability, T/C",[17],13.5%
same,"viability, T/C",[18],12.7%
same,"viability, T/C",[19],97.7%
same,"viability, T/C",[20],87.3%
same,"viability, T/C",[21],52.1%
same,"viability, T/C",[22],30%
same,"viability, T/C",[23],15.6%
same,"viability, T/C",[24],14%
same,"viability, T/C",[25],52.7%
same,"viability, T/C",[26],29.4%
same,"viability, T/C",[27],23%
same,"viability, T/C",[28],18.2%
same,"viability, T/C",[29],11.8%
same,"viability, T/C",[30],9.5%
same,"viability, T/C",[31],63.3%
same,"viability, T/C",[32],30.2%
same,"viability, T/C",[33],27.9%
same,"viability, T/C",[34],21.4%
same,"viability, T/C",[35],18%
same,"viability, T/C",[36],11.7%
